The source of these data is patent publication US6649605B2, “Treatment of tension-type headaches with NMDA receptor antagonists” (Head Explorer A/S, priority 1996, dated 2003).

Assay [1] deals with patients with chronic tension-type headache. The assay is described as follows: Double-blind crossover i.v. L-NMMA vs placebo: headache intensity on VAS and VRS. It is filed as in vivo, human. From the text:
Sixteen patients With a diagnosis of chronic tension-type headache according to the criteria of the International Headache Society, (headache Classification Committee 1988) were recruited from the out-patient headache clinic at Glostrup Hospital. There were 12 women and 4 men with a mean age (range) of 38.5 (23-52) years. Five patients with coexisting infrequent migraine (£ one day/month) were accepted. All patients completed a diagnostic headache diary during a 4-week run-in period (Russell et al. 1992). At screening, a full physical and neurological examination, including 12-lead ECG were carried out. Blood samples for routine haematological and biochemical testing, and urine sample for urine analysis were taken. The patients were not allowed to take analgesics 12 hours prior to the treatment. Exclusion criteria were: daily medication (including prophylactic headache therapy but not oral contraceptives); pregnant or breast feeding women; abuse of analgesics (corresponding to>2 gm of aspirin/day) or alcohol, serious somatic or psychiatric diseases including depression (Hamilton Depression Score ^317 (Hamilton 1960)); ischemic heart disease; a supine diastolic blood pressure >90 mmHg or heart rate <50 beats per minute at study entry. All patients gave written informed consent to participate in the study, which was approved by The local ethics committee and conducted in accordance with the Declaration of Helsinki.
Randomization (Med.Stat) and drug preparation were performed by staff not involved in the study. The medication was given over 15 minutes into an antecubital vein (Braun Perfusor). The following parameters were measured at baseline and […] post administration: headache intensity on a 100-mm Visual Analog Scale (VAS) (0-no headache and 100-worst imaginable headache) and on a Verbal Rating Scale (VRS) from 0-10 (0-no headache; 5-moderate headache; 10-worst imaginable headache). Blood pressure and pulse rate were measured 5 minutes prior to administration of treatment and at 5, 10, 15, 20, 25, 30, 60, 90 and 120 minutes post administration. Twelve-lead ECG was monitored continuously. Any adverse events were recorded. Patient with unrelieved headache at 120 minutes post treatment were allowed to take rescue medication. All patients were asked to record details of the following on a diary card at 4, 8, 12, 16, 20 and 24 hours post administration, headache intensity on VRS, any medication taken and adverse events. Between 4-7 days after each treatment, the patients returned to the clinic, the diary cards were collected and any adverse events were noted.
Primary endpoint was the reduction of pain intensity over time on active treatment compared to placebo. The secondary endpoints were reduction of pain intensity at 30, 60, 90 and 120 minutes post dosing on VAS and VRS compared to pre-treatment pain score within each treatment. Comparison of pain intensity on VAS, blood pressure and pulse rate over time between treatments were performed With ANOVA. Paired-Samples T Test was used to compare pre-treatment pain score on VAS with pain score at 30, 60, 90, 120 minutes post dosing within each treatment. The sum of differences between the pre-treatment VRS score and the VRS score at 30, 60, 90, 120 minutes post dosing was calculated in order to obtained a summary measure of pain score for each treatment (Matthews et al. 1990). These sums of differences for each treatment were compared by Wilcoxon Signed Rank test. Five percent was accepted as level of significance.
The recordings were performed in a standardized manner by the same observer, a trained technician (HA), throughout the study. All parameters were recorded at baseline, 60 and 120 minutes after start of infusion. The trial was designed as a double blind, placebo controlled, crossover study. […] The patients were not allowed to take analgesics 12 hours prior to the examination. […]

Assay [2] has the same test system. The assay is described as follows: Total Tenderness Score of pericranial myofascial tissues after L-NMMA. It is filed as in vivo, human. Particulars: 6 mg/kg i.v., hydrochloride. The text has this: Sixteen patients with a diagnosis of chronic tension-type headache according to the criteria of the International Headache Society (Headache Classification Committee 1988) were included (Table XVII). Five of the patients had coexisting infrequent migraine (<four days/year). The patients were recruited from the out-patient headache clinic at Glostrup University Hospital without respect to presence or absence of myofascial tenderness. All patients underwent a general physical and a neurological examination and completed a diagnostic headache diary during a 4-week run-in period (Russell et al. 1992). […]
The recordings were performed in a standardized manner by the same observer, a trained technician (HA), throughout the study. All parameters were recorded at baseline, 60 and 120 minutes after start of infusion. […] Headache intensity was measured on a 100 mm Visual Analog Scale (VAS) (0-no headache and 100-worst imaginable headache) before, during and after start of infusion.
Total tenderness. […] Tenderness was scored on a 4-point (0-3) scale at each location (local tenderness score) and values from left and right sides were summed to a Total Tenderness Score (TTS) (maximum possible score=48). […]

Entries after “also recorded” stand apart in the source; their conditions may differ.

With `CN=C(N)NCCC[C@H](N)C(=O)O.Cl` [L-NMMA, L-N^G methyl arginine hydrochloride], the “Pain intensity (VAS) over time compared with placebo” value in assay [1] (6 mg/kg i.v., 16 patients, ANOVA, hydrochloride) was “reduced pain intensity (VAS) over time significantly more than placebo; also recorded: effective in the treatment of patients with chronic tension-type headache; also recorded: significantly reduced”. Besides, the “Pain score compared with pre-treatment value within treatment” value in assay [1] (6 mg/kg i.v., post treatment time points, hydrochloride) is “significantly reduced after 30, 60, 90 and 120 minutes; also recorded: significantly reduced at each time point”. Moreover, in assay [1] (30 minutes post dosing, 100-mm VAS, 6 mg/kg i.v., mean (SD)), the “Pain score on VAS, 30 minutes” value is 38 ± 18. Further, the “Pain score on VAS, 60 minutes” value in assay [1] (60 minutes post dosing, 100-mm VAS, 6 mg/kg i.v., mean (SD)) turned out to be 35 ± 18. Also, in assay [1] (90 minutes post dosing, 100-mm VAS, 6 mg/kg i.v., mean (SD)), the “Pain score on VAS, 90 minutes” value was 34 ± 21. For the same molecule, the “Pain score on VAS, 120 minutes” value in assay [1] (120 minutes post dosing, 100-mm VAS, 6 mg/kg i.v., mean (SD)) was found to be 33 ± 21. Further, in assay [1] (Verbal Rating Scale 0-10, 6 mg/kg i.v., p=0.02), the “Pain intensity on VRS compared with placebo” value was “significantly lower”. Also, the “Duration of antinociceptive effect on headache intensity and of reduction of muscle hardness and tenderness” value in assay [1] (after start of infusion, 6 mg/kg i.v.) is listed as “at least 120 minutes”. Besides, the “Pain score on VAS, baseline” value in assay [1] (before treatment, 100-mm VAS, 6 mg/kg i.v. over 15 minutes, mean (SD), 16 patients) turned out to be 49 ± 16. Moreover, the “TTS compared with baseline” value in assay [2] (p=0.007 and p=0.008) was “significantly reduced at 60 and 120 minutes; also recorded: significantly), reduced at 60 and 120 minutes”. The “Tenderness score (summary) compared with placebo” value in assay [2] (p=0.11) is “tended to be reduced; also recorded: tended to be reduced more; also recorded: not significant”.
